In patent US7772241B2, “Variolin derivatives and their use as antitumor agents” (Pharma Mar S.A., priority 2001, dated 2010):
Like-named read-outs stand apart in the source and are kept apart here.

How the values were obtained:
LoVo = assay: Inhibition of cells growth by colorimetric (SRB) assay, LoVo; details: for GI50: read-out: GI50 LOVO, SRB assay, 48 hours exposure
How it was run: (§1)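 Read-out is sulforhodamine B protein stain (OD 490 nm) after cold TCA fixation, following 48 h continuous exposure to samples spanning 10 to 10^−8 μg/ml.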

HMEC1 = assay: Inhibition of cells growth by colorimetric (SRB) assay, HMEC1; details: for GI50: Homo sapiens, HMEC-1, 48 h, read-out: GI50 H-MEC-1, SRB assay, 48 hours exposure; for TGI H-MEC-1: SRB assay, 48 hours exposure, in M (unit assumed)
[1] = as above; details: human, HMEC1 cells, LC50 H-MEC-1, SRB assay, 48 hours exposure
IGROV-1 = assay: Inhibition of cells growth by colorimetric (SRB) assay, IGROV-1; details: for GI50 / CC50: Homo sapiens, IGROV-1, 48 h; for GI50: read-out: GI50 IGROV, SRB assay, 48 hours exposure; for CC50: read-out: LC50 IGROV, SRB assay, 48 hours exposure; for TGI IGROV: SRB assay, 48 hours exposure
How it was run: as §1

K-562 = assay: Inhibition of cells growth by colorimetric (SRB) assay, K-562; details: for GI50 / CC50: Homo sapiens, K562, 48 h; for GI50: read-out: GI50 K-562, SRB assay, 48 hours exposure; for CC50: read-out: LC50 K-562, SRB assay, 48 hours exposure; for TGI K-562: SRB assay, 48 hours exposure
How it was run: as §1

SK-MEL-28 = assay: Inhibition of cells growth by colorimetric (SRB) assay, SK-MEL-28; details: for GI50: read-out: GI50 MEL-28, SRB assay, 48 hours exposure
How it was run: as §1

LNCaP = assay: Inhibition of cells growth by colorimetric (SRB) assay, LNCaP; details: for GI50 / CC50: Homo sapiens, LNCaP, 48 h; for GI50: read-out: GI50 LN-caP, SRB assay, 48 hours exposure; for CC50: read-out: LC50 LN-caP, SRB assay, 48 hours exposure; for TGI LN-caP: SRB assay, 48 hours exposure
How it was run: as §1

HT-29 = assay: Inhibition of cells growth by colorimetric (SRB) assay, HT-29; details: for CC50: read-out: LC50 HT-29, SRB assay, 48 hours exposure
How it was run: as §1

SK-BR-3 = assay: Inhibition of cells growth by colorimetric (SRB) assay, SK-BR-3; details: for GI50 / CC50: Homo sapiens, SK-BR-3, 48 h; for GI50: read-out: GI50 SK-BR-3, SRB assay, 48 hours exposure; for CC50: read-out: LC50 SK-BR-3, SRB assay, 48 hours exposure; for TGI SK-BR-3: SRB assay, 48 hours exposure
How it was run: as §1

PANC-1 = assay: Inhibition of cells growth by colorimetric (SRB) assay, PANC-1; details: for GI50 / CC50: Homo sapiens, PANC-1, 48 h; for GI50: read-out: GI50 PANC-1, SRB assay, 48 hours exposure; for CC50: read-out: LC50 PANC-1, SRB assay, 48 hours exposure; for TGI PANC-1: SRB assay, 48 hours exposure
How it was run: as §1

LoVo-Dox = assay: Inhibition of cells growth by colorimetric (SRB) assay, LoVo-Dox; details: for GI50 / CC50: Homo sapiens, 48 h; for GI50: read-out: GI50 LOVO-DOX, SRB assay, 48 hours exposure; for CC50: read-out: LC50 LOVO-DOX, SRB assay, 48 hours exposure; for TGI LOVO-DOX: SRB assay, 48 hours exposure
How it was run: as §1

A-549 = assay: Inhibition of cells growth by colorimetric (SRB) assay, A-549
How it was run: as §1

IGROV-ET = assay: Inhibition of cells growth by colorimetric (SRB) assay, IGROV-ET; details: for GI50 / CC50: Homo sapiens, 48 h; for GI50: read-out: GI50 IGROV-ET, SRB assay, 48 hours exposure; for CC50: read-out: LC50 IGROV-ET, SRB assay, 48 hours exposure; for TGI IGROV-ET: SRB assay, 48 hours exposure
How it was run: as §1

DU-145 = assay: Inhibition of cells growth by colorimetric (SRB) assay, DU-145; details: for GI50: read-out: GI50 DU-145, SRB assay, 48 hours exposure
How it was run: as §1

[2] = Homo sapiens, LoVo, 48 h, read-out: LC50 LOVO, SRB assay, 48 hours exposure
[3] = Homo sapiens, SK-MEL-28, 48 h, read-out: LC50 MEL-28, SRB assay, 48 hours exposure
[4] = Homo sapiens, HT-29, 48 h, read-out: GI50 HT-29, SRB assay, 48 hours exposure
[5] = Homo sapiens, A549, 48 h, read-out: GI50 A-549, SRB assay, 48 hours exposure
[6] = Homo sapiens, A549, 48 h, read-out: LC50 A-549, SRB assay, 48 hours exposure
[7] = Homo sapiens, DU-145, 48 h, read-out: LC50 DU-145, SRB assay, 48 hours exposure

SMILES	GI50 (HMEC1)	TGI H-MEC-1 (HMEC1)	CC50 at 48 h [1]	GI50 (IGROV-1)	CC50 (IGROV-1)	TGI IGROV (IGROV-1)	GI50 (K-562)	CC50 (K-562)	TGI K-562 (K-562)	GI50 (SK-MEL-28; Homo sapiens, SK-MEL-28, 48 h)	TGI MEL-28 (SK-MEL-28; SRB assay, 48 hours exposure)	GI50 (LNCaP)	CC50 (LNCaP)	TGI LN-caP (LNCaP)	GI50 (PANC-1)	TGI A-549 (A-549; SRB assay, 48 hours exposure)	GI50 (IGROV-ET)	CC50 (IGROV-ET)	TGI IGROV-ET (IGROV-ET)	GI50 (DU-145; Homo sapiens, DU-145, 48 h)	also measured
COc1nccc(-c2c3c(N)ccnc3n3c(N)nccc23)n1 [Compound 88]	0.99 µM	9.71E−06	18.7 µM	3.23 µM	18.7 µM	9.58E−06	6.09 µM	18.7 µM	1.87E−05	1.43 µM	4.17E−06	0.415 µM	1.59 µM	8.13E−07	5.85 µM	6.95E−06	1.4 µM	18.7 µM	6.74E−06	0.902 µM	GI50 (LoVo; Homo sapiens, LoVo, 48 h): 1.34 µM; CC50 (LoVo; [2]): 12.9 µM; TGI LOVO (LoVo; SRB assay, 48 hours exposure): 4.37E−06; CC50 (SK-MEL-28; [3]): 11.2 µM; GI50 (HT-29; [4]): 1.03 µM; CC50 (HT-29; Homo sapiens, HT-29, 48 h): 18.7 µM; TGI HT-29 (HT-29; SRB assay, 48 hours exposure): 1.87E−05; GI50 (SK-BR-3): 0.562 µM; CC50 (SK-BR-3): 18.7 µM; TGI SK-BR-3 (SK-BR-3): 1.36E−06; CC50 (PANC-1): 18.7 µM; TGI PANC-1 (PANC-1): 1.87E−05; GI50 (LoVo-Dox): 1.06 µM; CC50 (LoVo-Dox): 15.1 µM; TGI LOVO-DOX (LoVo-Dox): 3.87E−06; GI50 (A-549; [5]): 1.03 µM; CC50 (A-549; [6]): 18.7 µM; CC50 (DU-145; [7]): 18.7 µM; TGI DU-145 (DU-145; SRB assay, 48 hours exposure): 1.87E−05
COc1nccc(-c2c3c(OC)ccnc3n3c(N)nccc23)n1 [Compound 109]	2.04 µM	2.17E−05	31 µM	3.07 µM	31 µM	1.46E−05	7.6 µM	31 µM	2.41E−05	1.26 µM	6.64E−06	1.4 µM	31 µM	4.81E−06	9.4 µM	2.33E−05	7.17 µM	31 µM	2.21E−05	1.63 µM	CC50 (SK-MEL-28; [3]): 22.4 µM; GI50 (SK-BR-3): 1.47 µM; CC50 (SK-BR-3): 31 µM; TGI SK-BR-3 (SK-BR-3): 5.40E−06; GI50 (A-549; [5]): 5.49 µM; CC50 (A-549; [6]): 31 µM; CC50 (DU-145; [7]): 31 µM; TGI DU-145 (DU-145; SRB assay, 48 hours exposure): 3.10E−05
COc1ccnc2c1c(-c1ccnc(N)n1)c1ccnc(N)n12 [Compound 114]	0.67 µM	1.33E−06	2.65 µM	0.843 µM	15.8 µM	1.81E−06	1.7 µM	16.2 µM	2.98E−06	0.605 µM	1.20E−06	0.625 µM	2.35 µM	1.21E−06	1.35 µM	1.72E−06	1.51 µM	25.4 µM	3.29E−06	0.732 µM	GI50 (LoVo; Homo sapiens, LoVo, 48 h): 0.54 µM; TGI LOVO (LoVo; SRB assay, 48 hours exposure): 1.98E−06; CC50 (LoVo; read-out: LC50 LOVO, SRB assay, 48 hours exposure): 10.3 µM; CC50 (SK-MEL-28; read-out: LC50 MEL-28, SRB assay, 48 hours exposure): 2.4 µM; CC50 (HT-29; Homo sapiens, HT-29, 48 h): 32.5 µM; TGI HT-29 (HT-29; SRB assay, 48 hours exposure): 3.25E−06; GI50 (HT-29; read-out: GI50 HT-29, SRB assay, 48 hours exposure): 1.04 µM; CC50 (PANC-1): 32.5 µM; TGI PANC-1 (PANC-1): 6.18E−06; GI50 (LoVo-Dox): 0.827 µM; CC50 (LoVo-Dox): 32.5 µM; TGI LOVO-DOX (LoVo-Dox): 2.41E−06; GI50 (A-549; read-out: GI50 A-549, SRB assay, 48 hours exposure): 0.553 µM; CC50 (A-549; read-out: LC50 A-549, SRB assay, 48 hours exposure): 8.23 µM; TGI DU-145 (DU-145; SRB assay, 48 hours exposure): 1.75E−06; CC50 (DU-145; read-out: LC50 DU-145, SRB assay, 48 hours exposure): 6.22 µM
Nc1nccc(-c2c3c(F)ccnc3n3c(N)nccc23)n1 [Compound 115]	0.599 µM	1.56E−06	5.96 µM	1.23 µM	≥ 33.9 µM	5.22E−06	4.47 µM	28.9 µM	1.13E−05	1.12 µM	4.13E−06	0.721 µM	2.34 µM	1.30E−06	2.05 µM	1.97E−06	1.47 µM	≥ 33.9 µM	6.84E−06	0.759 µM	GI50 (LoVo; Homo sapiens, LoVo, 48 h): 0.894 µM; CC50 (LoVo; [2]): ≥ 33.9 µM; TGI LOVO (LoVo; SRB assay, 48 hours exposure): 1.91E−06; CC50 (SK-MEL-28; [3]): 12.1 µM; GI50 (HT-29; [4]): 2.15 µM; CC50 (HT-29; Homo sapiens, HT-29, 48 h): ≥ 33.9 µM; TGI HT-29 (HT-29; SRB assay, 48 hours exposure): 1.31E−05; GI50 (SK-BR-3): 0.752 µM; CC50 (SK-BR-3): 6.23 µM; TGI SK-BR-3 (SK-BR-3): 1.69E−06; CC50 (PANC-1): ≥ 33.9 µM; TGI PANC-1 (PANC-1): 9.35E−06; GI50 (LoVo-Dox): 1.39 µM; CC50 (LoVo-Dox): ≥ 33.9 µM; TGI LOVO-DOX (LoVo-Dox): 5.76E−06; GI50 (A-549; [5]): 0.748 µM; CC50 (A-549; [6]): ≥ 33.9 µM; CC50 (DU-145; [7]): 10.7 µM; TGI DU-145 (DU-145; SRB assay, 48 hours exposure): 1.79E−06
